Reference: the NIST ThermoML archive (doi:10.1016/j.jct.2006.09.012)
Numbers after ± are expanded uncertainties.

Settings: Liquid, Buoyancy - hydrostatic balance with magnetic suspension - two sinkers

`CCOC(F)(C(F)(F)C(F)(F)C(F)(F)F)C(F)(C(F)(F)F)C(F)(F)F` (stereo not drawn) [2-trifluoromethyl-3-ethoxydodecafluorohexane] showed a mass density (285 K, 1204.2 kPa) of 1650.59 ± 2.2 kg/m3, a mass density (285 K, 1204.8 kPa) of 1650.6 ± 2.2 kg/m3 and a mass density (285 K, 1205.2 kPa) of 1650.59 ± 2.2 kg/m3. For the same molecule, the mass density (285 K, 5212.8 kPa) was 1659.79 ± 2.2 kg/m3, the mass density (285 K, 5220.2 kPa) was 1659.81 ± 2.2 kg/m3 and the mass density (285 K, 10181 kPa) was 1670.44 ± 2.2 kg/m3. The mass density (285 K, 10197 kPa) was 1670.47 ± 2.2 kg/m3, the mass density (308 K, 19845 kPa) was 1649.2 ± 2.2 kg/m3 and the mass density (308.01 K, 1314.5 kPa) was 1604.24 ± 2.1 kg/m3. For the same molecule, the mass density (308.01 K, 1320.9 kPa) was 1604.26 ± 2.1 kg/m3, the mass density (308.01 K, 1331 kPa) was 1604.29 ± 2.1 kg/m3 and the mass density (308.01 K, 5215.7 kPa) was 1614.98 ± 2.1 kg/m3. The mass density (308.01 K, 5219.6 kPa) was 1614.99 ± 2.1 kg/m3, the mass density (308.01 K, 5223.4 kPa) was 1615 ± 2.1 kg/m3 and the mass density (308.01 K, 10450 kPa) was 1628.17 ± 2.2 kg/m3. It also gave a mass density (308.01 K, 10468 kPa) of 1628.21 ± 2.2 kg/m3, a mass density (308.01 K, 10476 kPa) of 1628.24 ± 2.2 kg/m3 and a mass density (308.01 K, 19786 kPa) of 1649.07 ± 2.2 kg/m3. It also gave a mass density (308.01 K, 19825 kPa) of 1649.16 ± 2.2 kg/m3, a mass density (350 K, 1285.8 kPa) of 1515.32 ± 2.1 kg/m3 and a mass density (350 K, 1286 kPa) of 1515.32 ± 2.1 kg/m3. It also gave a mass density (350 K, 1286.3 kPa) of 1515.32 ± 2.1 kg/m3, a mass density (350 K, 1286.4 kPa) of 1515.32 ± 2.1 kg/m3 and a mass density (350 K, 1286.7 kPa) of 1515.32 ± 2.1 kg/m3. It also gave a mass density (350 K, 1286.8 kPa) of 1515.32 ± 2.1 kg/m3, a mass density (350 K, 5286.1 kPa) of 1531.01 ± 2.1 kg/m3 and a mass density (350 K, 5291 kPa) of 1531.03 ± 2.1 kg/m3. It also gave a mass density (350 K, 10388 kPa) of 1548.66 ± 2.1 kg/m3, a mass density (350 K, 10394 kPa) of 1548.69 ± 2.1 kg/m3 and a mass density (350 K, 10401 kPa) of 1548.71 ± 2.1 kg/m3. The mass density (350 K, 16836 kPa) was 1568.2 ± 2.2 kg/m3, the mass density (350 K, 16850 kPa) was 1568.24 ± 2.2 kg/m3 and the mass density (350 K, 17082 kPa) was 1568.89 ± 2.2 kg/m3. The mass density (350 K, 19716 kPa) was 1576.14 ± 2.2 kg/m3, the mass density (350 K, 19732 kPa) was 1576.18 ± 2.2 kg/m3 and the mass density (350 K, 19786 kPa) was 1576.33 ± 2.2 kg/m3. It also gave a mass density (400 K, 1164.3 kPa) of 1398.22 ± 2 kg/m3, a mass density (400 K, 1164.4 kPa) of 1398.22 ± 2 kg/m3 and a mass density (400 K, 1164.7 kPa) of 1398.23 ± 2 kg/m3. For the same molecule, the mass density (400 K, 5225.5 kPa) was 1424.08 ± 2 kg/m3, the mass density (400 K, 5227.2 kPa) was 1424.09 ± 2 kg/m3 and the mass density (400 K, 5228.8 kPa) was 1424.1 ± 2 kg/m3. The mass density (400 K, 9975.6 kPa) was 1448.91 ± 2.1 kg/m3, the mass density (400 K, 9979.7 kPa) was 1448.93 ± 2.1 kg/m3 and the mass density (400 K, 9984.1 kPa) was 1448.95 ± 2.1 kg/m3. For the same molecule, the mass density (400 K, 19197 kPa) was 1487.27 ± 2.1 kg/m3, the mass density (400 K, 19208 kPa) was 1487.3 ± 2.1 kg/m3 and the mass density (400 K, 19218 kPa) was 1487.34 ± 2.1 kg/m3. The mass density (400 K, 19258 kPa) was 1487.49 ± 2.1 kg/m3, the mass density (400 K, 19276 kPa) was 1487.55 ± 2.1 kg/m3 and the mass density (400 K, 19287 kPa) was 1487.59 ± 2.1 kg/m3. The mass density (400 K, 19317 kPa) was 1487.71 ± 2.1 kg/m3, the mass density (400 K, 19328 kPa) was 1487.74 ± 2.1 kg/m3 and the mass density (400 K, 19347 kPa) was 1487.81 ± 2.1 kg/m3. The mass density (400 K, 19369 kPa) was 1487.89 ± 2.1 kg/m3, the mass density (400 K, 19380 kPa) was 1487.93 ± 2.1 kg/m3 and the mass density (400 K, 19391 kPa) was 1487.97 ± 2.1 kg/m3. The mass density (400 K, 19416 kPa) was 1488.07 ± 2.1 kg/m3, the mass density (400 K, 19495 kPa) was 1488.35 ± 2.1 kg/m3 and the mass density (400 K, 19519 kPa) was 1488.44 ± 2.1 kg/m3. For the same molecule, the mass density (400 K, 19543 kPa) was 1488.53 ± 2.1 kg/m3, the mass density (400 K, 19560 kPa) was 1488.59 ± 2.1 kg/m3 and the mass density (400 K, 19582 kPa) was 1488.67 ± 2.1 kg/m3.
